This note sets out measurements from publication PMC6433685, “Histone deacetylase inhibitor LMK235 attenuates vascular constriction and aortic remodelling in hypertension” (Journal of Cellular and Molecular Medicine, 2019).

The target in this experiment is T1, HDAC1 (Homo sapiens, UniProt Q13547).
T1 construct: purchased BPS Bioscience 50061
As to the kind of experiment: HDAC1 fluorogenic enzyme assay kit (BPS Bioscience), cell-free. The format is biochemical. Particulars: 0.001-10 μmol/L inhibitor.

T1 sequence (Q13547 whole entry): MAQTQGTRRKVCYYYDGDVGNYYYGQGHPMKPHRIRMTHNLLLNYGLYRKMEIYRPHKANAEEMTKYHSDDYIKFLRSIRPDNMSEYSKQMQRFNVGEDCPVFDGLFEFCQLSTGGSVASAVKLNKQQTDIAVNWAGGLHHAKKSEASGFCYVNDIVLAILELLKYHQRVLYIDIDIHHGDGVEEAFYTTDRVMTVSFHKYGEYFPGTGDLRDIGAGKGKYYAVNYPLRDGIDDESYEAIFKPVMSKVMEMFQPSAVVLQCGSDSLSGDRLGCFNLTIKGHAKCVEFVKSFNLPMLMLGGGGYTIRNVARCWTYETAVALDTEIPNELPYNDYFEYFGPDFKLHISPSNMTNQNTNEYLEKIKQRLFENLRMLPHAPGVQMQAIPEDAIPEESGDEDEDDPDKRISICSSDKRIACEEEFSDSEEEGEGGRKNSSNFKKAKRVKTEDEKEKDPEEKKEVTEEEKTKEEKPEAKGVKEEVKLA

By IC50 is commonly meant the point on the concentration scale where inhibition reaches its midpoint. Lower therefore signals greater potency. In turn, `Cc1cc(C)cc(C(=O)NOCCCCCC(=O)NO)c1` [LMK235] came in with a concentration for half-maximal inhibition (IC50) of 30 nM.
